Test results from patent US20240132525A1, “BORON […], CO[…], METHODS AND USES THEREOF” (priority 2022, published 2024).
pIC50: −log10 of the molar value. Where two headings read alike, the source gives them in different places.

Legend:
IL-4/pSTAT6 = experiment: Cytokine function assay IL-4/pSTAT6 in PBMC; type: cell-based
Description: (§1) Cytokine Function Assay Protocols for IL-4/pSTAT6 and GM-CSF/pSTAT5
IL-4/pSTAT6: • PBMC from a healthy donor was plated onto a 96 w plate. Compound was added and incubated for 1 hour (at 37° C.). After 1 hour, cells were stimulated with IL-4 for 15 minutes. Cells were fixed and stained with anti-pSTAT6 antibody. After staining, cells were read on a Beckman-Coulter CytoFLEX.

[1] = Dog LM (liver microsome) assay; type: in vitro ADME; settings: predicted clearance as percent of liver blood flow
In short: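 Pooled Beagle liver microsomes (1 mg/ml protein), compound 1 μM, Tris pH 7.6 with 5 mM MgCl2, 37 °C, started with 1 mM NADPH; parent loss by LC-MS/MS over several time points.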

GM-CSF/pSTAT5 = experiment: Cytokine function assay GM-CSF/pSTAT5 in lysed whole blood cells; type: cell-based; settings: read-out: IC50 GM-CSF
Description: as §1
GM-CSF/pSTAT5: • Whole blood from a healthy donor was lysed to remove red blood cells. Cells were plated onto a 96 well plate. Compound was added and incubated for 1 hour (at 37° C.). After 1 hour, cells were stimulated with GM-CSF for 15 minutes. Cells were fixed and stained with anti-pSTAT5 antibody. After staining, cells were read on a Beckman-Coulter CytoFLEX.

JAK2 = JAK2 (Homo sapiens (Human), UniProt O60674); experiment: Biochemical kinase assay (33P-ATP filter-binding), JAK2; settings: read-out: IC50 JAK2
Excerpt: (§2) Biochemical Kinase Assay Protocol (JAK)
(§3) Reaction Procedure: • 1. […] Detected kinase activity by filter-binding method.

JAK1 = JAK1 (Homo sapiens (Human), UniProt P23458); experiment: Biochemical kinase assay (33P-ATP filter-binding), JAK1; settings: read-out: IC50 JAK1
Excerpt: as §2, §3

IL-31 = experiment: Cytokine function assay for IL-31 in DH82 cells; type: cell-based, canine; settings: Canis lupus familiaris, DH82; Table 3a; read-out: IC50 IL-31
Description: Cytokine Function Assay Protocol for IL-31
The protocol for the cytokine function assay for IL-31 is set forth below: • 1. […] After 24 hr, wash with 37° C. pre-warmed PBS (100 uL/well). • 3. Add serum-free MEM, 90 uL per well, 2 hr, 37° C. • 4. Add 10 uL 10×IL-31 (40, 10, 2.5 ug/mL) in duplicate, 5 min, 37° C. • 5. Remove medium, add 60 uL lysis buffer per well. Agitate on a plate shaker (˜350 rpm) for 10 min at RT. • 6. […] Add 6 uL Acceptor Mix, cover with aluminum foil, quickly spin at 1000 rpm, shake at 120 rpm for 2 min, then incubate at RT for 1 hr. • 8. Add 6 uL Donor Mix, cover with aluminum foil, quickly spin at 1000 rpm, shake at 120 rpm for 2 min, then incubate at RT for 1 hr. • 9. Measure the fluorescence using EnVision™ plate reader.

PDE4B = PDE4B (Homo sapiens (Human), UniProt Q07343); experiment: PDE4B inhibition; type: biochemical
[2] = PBMC, read-out: IC50 IL-4, Table 3a
[3] = Table 3a, 1 μM, 1 mg/ml microsomal protein
[4] = Table 3b, comparator compounds, read-out: IC50 IL-4

JAK2, sequence (O60674 whole entry, species assumed): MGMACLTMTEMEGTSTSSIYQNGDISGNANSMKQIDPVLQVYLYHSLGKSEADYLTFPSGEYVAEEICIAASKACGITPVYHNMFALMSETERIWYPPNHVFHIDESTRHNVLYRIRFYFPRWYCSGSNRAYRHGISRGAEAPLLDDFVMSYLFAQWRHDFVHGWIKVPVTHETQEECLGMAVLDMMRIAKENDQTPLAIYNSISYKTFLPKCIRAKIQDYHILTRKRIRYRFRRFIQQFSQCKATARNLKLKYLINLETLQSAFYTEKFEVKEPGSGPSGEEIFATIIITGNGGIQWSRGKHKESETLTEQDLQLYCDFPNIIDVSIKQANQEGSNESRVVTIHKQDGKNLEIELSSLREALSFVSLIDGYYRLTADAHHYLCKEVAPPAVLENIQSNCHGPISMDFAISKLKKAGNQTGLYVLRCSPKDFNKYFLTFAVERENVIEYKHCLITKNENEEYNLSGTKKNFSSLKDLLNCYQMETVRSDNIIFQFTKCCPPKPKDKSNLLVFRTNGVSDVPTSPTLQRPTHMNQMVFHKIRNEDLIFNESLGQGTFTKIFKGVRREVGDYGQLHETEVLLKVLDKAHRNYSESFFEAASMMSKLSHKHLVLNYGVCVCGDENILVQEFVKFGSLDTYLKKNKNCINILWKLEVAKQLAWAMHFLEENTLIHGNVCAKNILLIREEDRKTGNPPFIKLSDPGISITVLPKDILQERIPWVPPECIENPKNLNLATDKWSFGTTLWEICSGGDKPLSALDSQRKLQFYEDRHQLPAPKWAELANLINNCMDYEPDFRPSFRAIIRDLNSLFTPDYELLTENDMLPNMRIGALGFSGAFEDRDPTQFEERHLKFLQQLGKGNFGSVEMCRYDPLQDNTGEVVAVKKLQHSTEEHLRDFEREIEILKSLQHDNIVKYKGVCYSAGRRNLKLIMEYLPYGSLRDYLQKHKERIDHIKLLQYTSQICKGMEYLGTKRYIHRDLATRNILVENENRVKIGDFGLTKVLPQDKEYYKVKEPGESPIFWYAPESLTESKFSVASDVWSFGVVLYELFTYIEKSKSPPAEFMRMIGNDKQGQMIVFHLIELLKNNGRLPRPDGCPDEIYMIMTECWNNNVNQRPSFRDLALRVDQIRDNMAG
JAK1, sequence (P23458 whole entry, species assumed): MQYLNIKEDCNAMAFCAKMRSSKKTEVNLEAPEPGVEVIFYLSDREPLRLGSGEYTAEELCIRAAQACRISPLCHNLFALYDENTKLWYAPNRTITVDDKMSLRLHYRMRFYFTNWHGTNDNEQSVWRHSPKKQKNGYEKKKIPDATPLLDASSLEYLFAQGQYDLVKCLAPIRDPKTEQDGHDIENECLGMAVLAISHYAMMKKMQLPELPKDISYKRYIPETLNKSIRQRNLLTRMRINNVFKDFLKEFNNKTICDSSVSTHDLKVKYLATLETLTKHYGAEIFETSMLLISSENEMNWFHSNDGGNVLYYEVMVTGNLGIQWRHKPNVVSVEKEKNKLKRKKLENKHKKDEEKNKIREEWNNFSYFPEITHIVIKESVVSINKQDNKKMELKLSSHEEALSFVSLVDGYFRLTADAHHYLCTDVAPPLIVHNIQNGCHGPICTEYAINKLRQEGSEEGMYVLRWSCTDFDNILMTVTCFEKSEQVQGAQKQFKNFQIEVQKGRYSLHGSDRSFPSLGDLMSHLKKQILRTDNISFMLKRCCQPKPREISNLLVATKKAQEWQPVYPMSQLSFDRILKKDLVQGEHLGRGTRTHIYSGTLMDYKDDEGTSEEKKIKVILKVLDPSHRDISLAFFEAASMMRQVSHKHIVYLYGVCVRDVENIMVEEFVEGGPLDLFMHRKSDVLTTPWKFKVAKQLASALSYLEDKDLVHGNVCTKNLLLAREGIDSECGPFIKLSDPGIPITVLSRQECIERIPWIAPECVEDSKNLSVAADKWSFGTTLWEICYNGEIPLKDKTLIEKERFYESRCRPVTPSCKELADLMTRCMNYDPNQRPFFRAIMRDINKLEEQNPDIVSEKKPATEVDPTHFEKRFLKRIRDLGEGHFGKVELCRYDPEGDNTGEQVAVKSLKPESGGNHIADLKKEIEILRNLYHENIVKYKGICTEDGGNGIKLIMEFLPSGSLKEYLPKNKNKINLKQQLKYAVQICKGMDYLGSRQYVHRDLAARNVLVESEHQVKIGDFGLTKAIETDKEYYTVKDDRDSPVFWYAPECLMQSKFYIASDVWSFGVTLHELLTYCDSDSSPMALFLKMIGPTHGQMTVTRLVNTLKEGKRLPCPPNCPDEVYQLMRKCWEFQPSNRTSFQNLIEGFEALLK
PDE4B, sequence (Q07343 whole entry, species assumed): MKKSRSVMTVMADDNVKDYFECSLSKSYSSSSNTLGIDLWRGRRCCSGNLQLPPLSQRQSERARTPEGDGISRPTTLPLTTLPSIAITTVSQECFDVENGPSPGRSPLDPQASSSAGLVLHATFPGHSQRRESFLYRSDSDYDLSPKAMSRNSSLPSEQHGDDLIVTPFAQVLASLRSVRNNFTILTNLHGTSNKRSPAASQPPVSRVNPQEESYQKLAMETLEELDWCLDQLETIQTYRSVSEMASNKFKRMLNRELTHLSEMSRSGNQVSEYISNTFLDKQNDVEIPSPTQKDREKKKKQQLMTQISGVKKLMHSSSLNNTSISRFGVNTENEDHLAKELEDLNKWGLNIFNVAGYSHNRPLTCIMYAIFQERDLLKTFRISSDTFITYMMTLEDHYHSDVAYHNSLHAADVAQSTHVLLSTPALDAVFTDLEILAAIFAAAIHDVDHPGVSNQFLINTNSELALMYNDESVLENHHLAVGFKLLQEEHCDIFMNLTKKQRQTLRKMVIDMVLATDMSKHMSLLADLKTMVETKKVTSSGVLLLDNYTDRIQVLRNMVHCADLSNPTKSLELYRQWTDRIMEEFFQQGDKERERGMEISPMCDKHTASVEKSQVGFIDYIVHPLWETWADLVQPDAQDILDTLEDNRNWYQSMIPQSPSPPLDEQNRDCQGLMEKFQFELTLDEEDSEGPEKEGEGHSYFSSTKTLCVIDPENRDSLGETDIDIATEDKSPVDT

Row | SMILES | pIC50 (IL-4/pSTAT6; [2]) | Dog LM QH [1, 3] | pIC50 (GM-CSF/pSTAT5; Whole blood cell) | pIC50 (JAK2; Table 3a) | pIC50 (JAK1; Table 3a) | pIC50 (IL-31) | pIC50 (PDE4B; Table 3a) | pIC50 (IL-4/pSTAT6; [4]) | Dog LM QH ([1]; Table 3b, comparator compounds) | pIC50 (GM-CSF/pSTAT5; Table 3b, comparator compounds) | pIC50 (JAK2; Table 3b, comparator compounds) | pIC50 (PDE4B; Table 3b, comparator compounds) | Inhibition PDE4B @ 1 μM (PDE4B; Table 3b, comparator compounds) | pIC50 (JAK1; Table 3b, comparator compounds)
1 | Cc1cnc(Nc2cc(Cl)c3c(c2)COB3O)nc1NC1CCCC1C#N (racemic) [Example 003, (trans)-2-((2-((7-chloro-1-hydroxy-1,3-dihydrobenzo[c][1,2]oxaborol-5-yl)amino)-5-methylpyrimidin-4-yl)amino)cyclopentane-1-carbonitrile] | 6.97 | <19.9% | 5.84 | 7.40 | 9.15 | 7.67 | – | – | – | – | – | – | – | –
2 | Cc1cnc(Nc2cc(Cl)c3c(c2)COB3O)nc1NC1CCCCC1C#N (racemic) [Example 010, (trans)-2-[[2-[(7-chloro-1-hydroxy-1,3dihydrobenzo[c][1,2]oxaboroll-5-yl)amino]-5-methyl-pyrimidin-4-yl]amino]cyclohexane-1-carbonitrile] | 7.14 | <19.9% | 5.99 | 7.71 | 9.15 | 7.74 | – | – | – | – | – | – | – | –
3 | Cc1cnc(Nc2cc3c(c(C(F)(F)F)c2)B(O)OC3)nc1NC1CCCCC1C#N (racemic) [Example 011, (trans)-2-((2-((1-hydroxy-7-(trifluoromethyl)-1,3-dihydrobenzo[c][1,2]oxaborol-5-yl)amino)-5-methylpyrimidin-4-yl)amino)cyclohexane-1-carbonitrile] | 6.80 | <19.9% | 5.94 | 7.43 | 9.05 | 7.47 | – | – | – | – | – | – | – | –
4 | Cc1cnc(Nc2ccc3c(c2)COB3O)nc1NC1COCCC1C#N (racemic) [Example 026, (trans)-3-[[2-[(1-hydroxy-3H-2,1-benzoxaborol-5-yl)amino]-5-methyl-pyrimidin-4-yl]amino]tetrahydropyran-4-carbonitrile] | 7.04 | <19.9% | 5.57 | 8.15 | 9.30 | 7.19 | – | – | – | – | – | – | – | –
5 | Cc1cnc(Nc2cc(Cl)c3c(c2)COB3O)nc1NC1COCCC1C#N (racemic) [Example 031, (trans)-3-((2-((7-chloro-1-hydroxy-1,3-dihydrobenzo[c][1,2]oxaborol-5-yl)amino)-5-methylpyrimidin-4-yl)amino)tetrahydro-2H-pyran-4-carbonitrile] | 7.17 | <19.9% | 5.50 | 7.39 | 8.92 | 7.56 | – | – | – | – | – | – | – | –
6 | Cc1cnc(Nc2ccc3c(c2)COB3O)nc1N[C@@H]1CCC[C@H]1C#N (relative stereo) [Example 001, (trans)-2-((2-((1-hydroxy-1,3-dihydrobenzo[c][1,2]oxaborol-5-yl)amino)-5-methylpyrimidin-4-yl)amino)cyclopentane-1-carbonitrile] | 6.76 | 39.7% | – | 7.61 | 8.96 | – | 6.44 | – | – | – | – | – | – | –
7 | Cc1cnc(Nc2ccc3c(c2)COB3O)nc1N[C@@H]1CCCC[C@H]1C#N (relative stereo) [Example 008, (trans)2-[[2-[(1-hydroxy-3H-2,1-benzoxaborol-5-yl)amino]-5-methyl-pyrimidin-4-yl]amino]cyclohexane-1-carbonitrile] | 7.02 | <19.9% | 6.11 | 8.47 | 9.52 | 7.40 | – | – | – | – | – | – | – | –
8 | N#C[C@@H]1CCCC[C@H]1Nc1nc(Nc2ccc3c(c2)COB3O)ncc1Cl (relative stereo) [Example 017, (trans)-2-((5-chloro-2-((1-hydroxy-1,3-dihydrobenzo[c][1,2]oxaborol-5-yl)amino)pyrimidin-4-yl)amino)cyclohexane-1-carbonitrile] | 6.63 | <19.9% | 5.00 | 8.38 | 9.40 | 7.45 | – | – | – | – | – | – | – | –
9 | Cc1cnc(Nc2cc(C)c3c(c2)COB3O)nc1N[C@@H]1COCC[C@H]1C#N (relative stereo) [Example 027, (trans)-3-((2-((1-hydroxy-7-methyl-1,3-dihydrobenzo[c][1,2]oxaborol-5-yl)amino)-5-methylpyrimidin-4-yl)amino)tetrahydro-2H-pyran-4-carbonitrile] | 7.10 | 30.1% | 5.92 | 8.46 | 9.22 | 7.09 | – | – | – | – | – | – | – | –
10 | N#C[C@@H]1CCOC[C@H]1Nc1nc(Nc2cc(Cl)c3c(c2)COB3O)ncc1C(F)(F)F (relative stereo) [Example 049, (trans)-3-((2-((7-chloro-1-hydroxy-1,3-dihydrobenzo[c][1,2]oxaborol-5-yl)amino)-5-(trifluoromethyl)pyrimidin-4-yl)amino)tetrahydro-2H-pyran-4-carbonitrile] | 6.76 | 39.7% | – | 7.88 | 8.09 | – | 6.44 | – | – | – | – | – | – | –
11 | Cc1cnc(Nc2cc(Cl)c3c(c2)COB3O)nc1N[C@@H]1CCC[C@H]1C#N (single isomer, unassigned) [Example 003a, (trans)-2-((2-((7-chloro-1-hydroxy-1,3-dihydrobenzo[c][1,2]oxaborol-5-yl)amino)-5-methylpyrimidin-4-yl)amino)cyclopentane-1-carbonitrile] | 7.03 | <19.9% | 5.65 | 8.43 | 9.15 | 8.04 | – | – | – | – | – | – | – | –
12 | CCC(CC)Nc1nc(Nc2ccc3c(c2)COB3O)ncc1C [Example C001] | – | – | – | – | – | – | – | 6.94 | 73.8% | 5.76 | 7.22 | 7.04 | 90% | 8.80
13 | CCC(CC)Nc1nc(Nc2cc(F)c3c(c2)COB3O)ncc1C [Example C003] | – | – | – | – | – | – | – | 6.90 | 41.0% | 5.94 | 7.36 | 6.67 | – | 9.15
14 | CCC(CC)Nc1nc(Nc2cc(C)c3c(c2)COB3O)ncc1C [Example C004] | – | – | – | – | – | – | – | 6.93 | 34.5% | < 5.00 | 7.39 | – | 22% | 8.96
15 | CCC(CC)Nc1nc(Nc2ccc3c(c2)COB3O)ncc1Cl [Example C005] | – | – | – | – | – | – | – | 5.21 | – | 5.65 | 7.48 | 6.42 | – | 8.96
16 | Cc1cnc(Nc2ccc3c(c2)COB3O)nc1NC1CCCC1 [Example C006] | – | – | – | – | – | – | – | 6.53 | >86.6% | 6.57 | 6.81 | 6.94 | 86% | 8.19
17 | Cc1cnc(Nc2cc(Cl)c3c(c2)COB3O)nc1NC1CCCC1 [Example C007] | – | – | – | – | – | – | – | 6.52 | 52.1% | 5.43 | 7.50 | 6.95 | – | 9.15
18 | Cc1cnc(Nc2cc(C)c3c(c2)COB3O)nc1NC1CCCC1 [Example C008] | – | – | – | – | – | – | – | 6.01 | 54.3% | < 5.00 | 7.23 | – | 37% | 8.64
19 | Cc1cnc(Nc2ccc3c(c2)C(C)(C)OB3O)nc1NC1CCCC1 [Example C009] | – | – | – | – | – | – | – | 6.66 | 83.4% | 5.37 | 7.08 | 6.12 | 40% | 8.62
20 | Cc1cnc(Nc2ccc3c(c2)COB3O)nc1NC1CCCCC1 [Example C011] | – | – | – | – | – | – | – | 5.60 | 83.5% | 5.11 | 7.48 | 6.62 | 13% | 8.49
21 | OB1OCc2cc(Nc3ncc(Cl)c(NC4CCCC4)n3)ccc21 [Example C014] | – | – | – | – | – | – | – | 6.11 | 78.5% | 5.27 | 6.75 | 7.28 | – | 8.48
22 | Cc1cc(Nc2ncc(Cl)c(NC3CCCC3)n2)cc2c1B(O)OC2 [Example C016] | – | – | – | – | – | – | – | 6.16 | 54.5% | 6.03 | 6.18 | – | 30% | 8.68
